This passage reports TGI results from PubChem BioAssay (NCI).

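Following 48 hours of exposure in 96-well plates, responses at five concentrations were used to interpolate endpoints linearly. TGI: total growth inhibition.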 *1 amine or outer side, *2 acyl side, *3 side chain or, on linkers, in order; H or OH if unused. Where a SMILES comes first, the peptide text is derived from it. Bridges are numbered along the chain shown (N, C = ends). Roman numbers before positions name the chains, in order. [ ]: non-standard residue; d: D form. Actinocin(9to1) = Cc1c2oc3c(C)ccc(C(=O)[*:1])c3nc-2c(C(=O)[*:2])c(N)c1=O; X48 = O=C1CC(C(=O)[*:2])N([*:1])C1; NMeV = CN[CH](C(=O)O)C(C)C; Sar = CNCC(=O)O

Among the test systems are HOP-62 NSCLC; U251 CNS; HS 578T breast; EKVX NSCLC; NCI-H226 lung; ACHN renal; MDA-N; SN12C renal; NCI-H23 lung; BT-549 breast; MCF7 breast; SK-MEL-5 melanoma; SK-MEL-2 melanoma; IGROV1 ovarian; SNB-75 CNS; A549 NSCLC; HL-60(TB) leukemia; SR leukemia; COLO 205 colon; NCI/ADR-RES ovarian.
Holding throughout (assay): inhibition of tumour cell growth, NCI panel, 48 h

With `COC(=O)CCC(NC(=O)C(C)NC(=O)COC1C(O)C(OC(=O)CCNc2c3ccccc3nc3cccc([N+](=O)[O-])c23)OC(OCc2ccccc2)C1NC(C)=O)C(N)=O` (stereo unspecified), the TGI in the assay on HOP-62 NSCLC, with U251 CNS, with HS 578T breast, in the assay on EKVX NSCLC, with NCI-H226 lung and in the assay on ACHN renal was more than 10 µM in each case. Moreover, the TGI in the assay with MDA-N is 6.04 µM; in the assay with SN12C renal, more than 10 µM; in the assay on NCI-H23 lung, more than 10 µM; in the assay on BT-549 breast, more than 10 µM; in the assay on MCF7 breast it was 9.81 µM; in the assay on SK-MEL-5 melanoma it was more than 10 µM. The TGI in the assay on SK-MEL-2 melanoma was 5.57 µM; with IGROV1 ovarian, more than 10 µM; in the assay on SNB-75 CNS, more than 10 µM; in the assay on A549 NSCLC, more than 10 µM.

For the compound `Cc1c2oc3c(C)ccc(C(=O)NC4C(=O)NC(C(C)C)C(=O)N5CC(=O)CC5C(=O)N(C)CC(=O)N(C)C(C(C)C)C(=O)OC4C)c3nc-2c(C(=O)NC2C(=O)NC(C(C)C)C(=O)N3CC(=O)CC3C(=O)N(C)CC(=O)N(C)C(C(C)C)C(=O)OC2C)c(N)c1=O` (stereo unspecified) (I: TV[X48][Sar][NMeV] / II: TV[X48][Sar][NMeV]; ester I:1-I:C, II:1-II:C; linker I:N-II:N via Actinocin(9to1); configuration not given here), the TGI in the assay on HOP-62 NSCLC, in the assay on U251 CNS, in the assay with EKVX NSCLC, in the assay on HL-60(TB) leukemia, with NCI-H226 lung and in the assay on ACHN renal was more than 1 µM in each case. Besides, the TGI in the assay with MDA-N, with SN12C renal, with SR leukemia, in the assay on NCI-H23 lung, in the assay on MCF7 breast and with COLO 205 colon was more than 1 µM in each case. For the same compound, the TGI in the assay on SK-MEL-5 melanoma, in the assay with NCI/ADR-RES ovarian, in the assay on SK-MEL-2 melanoma, in the assay on IGROV1 ovarian and in the assay on A549 NSCLC was more than 1 µM in each case.

Take `CC1(C)CC[C@]2(C(=O)O)CC[C@]3(C)C(=CC[C@@H]4[C@@]5(C)C[C@H](O)[C@H](O)[C@@](C)(CO)C5=CC[C@]43C)[C@@H]2C1`: the TGI in the assay with HOP-62 NSCLC, in the assay with U251 CNS, in the assay on HS 578T breast, in the assay with EKVX NSCLC, in the assay with HL-60(TB) leukemia and with ACHN renal was more than 100 µM throughout. For the same compound, the TGI is more than 100 µM in the assay on MDA-N; more than 100 µM in the assay on SN12C renal; more than 100 µM in the assay with SR leukemia; more than 100 µM in the assay on NCI-H23 lung; more than 100 µM in the assay on MCF7 breast; 42.4 µM in the assay on COLO 205 colon. In addition, the TGI in the assay with SK-MEL-5 melanoma, in the assay on NCI/ADR-RES ovarian, in the assay with SK-MEL-2 melanoma, in the assay with IGROV1 ovarian, in the assay on SNB-75 CNS and with A549 NSCLC was more than 100 µM each time.

As to `CCCCCCCCCCCCn1c(=O)cc(NCCCC)c2cc3c(NCCCC)cc(=O)n(CCCCCCCCCCCC)c3nc21`, the TGI in the assay with HOP-62 NSCLC, in the assay on U251 CNS, with NCI-H226 lung, in the assay with ACHN renal, in the assay on MDA-N and in the assay with SN12C renal was more than 100 µM each time. Also, the TGI with NCI-H23 lung, in the assay on BT-549 breast, in the assay with MCF7 breast, in the assay on COLO 205 colon, in the assay on SK-MEL-5 melanoma and in the assay with NCI/ADR-RES ovarian was more than 100 µM in each case. For the same compound, the TGI in the assay on SK-MEL-2 melanoma, in the assay on SNB-75 CNS and in the assay on A549 NSCLC was more than 100 µM throughout.

Turning to `COc1ccc(CNc2nc3cc(C(F)(F)F)ccc3nc2C(=O)O)cc1OC`, the TGI in the assay with HOP-62 NSCLC was 66.1 µM; in the assay on U251 CNS, 73.5 µM; in the assay on EKVX NSCLC it was more than 100 µM; in the assay on NCI-H226 lung, more than 100 µM; in the assay on ACHN renal, more than 100 µM; with MDA-N, more than 100 µM. For the same compound, the TGI with SN12C renal is 77.9 µM; in the assay with SR leukemia, 63.8 µM; in the assay with NCI-H23 lung, more than 100 µM; in the assay with BT-549 breast, more than 100 µM; in the assay with MCF7 breast, 95 µM; with COLO 205 colon, 57.7 µM. For the same compound, the TGI in the assay on SK-MEL-5 melanoma is 43.7 µM; in the assay on NCI/ADR-RES ovarian it was more than 100 µM; in the assay on SK-MEL-2 melanoma, 51.8 µM; in the assay on IGROV1 ovarian, 66 µM; with SNB-75 CNS, more than 100 µM; with A549 NSCLC, more than 100 µM.

Take `O=C1C2=Cc3ccccc3OC2(O)Oc2cc(O)ccc21` (stereo unspecified): the TGI in the assay with HOP-62 NSCLC, with U251 CNS, with EKVX NSCLC, in the assay on NCI-H226 lung, with ACHN renal and in the assay on MDA-N was more than 100 µM in each case. In addition, the TGI in the assay on SN12C renal, in the assay on NCI-H23 lung, with BT-549 breast, in the assay with MCF7 breast, in the assay with COLO 205 colon and with SK-MEL-5 melanoma was more than 100 µM in each case. The TGI in the assay with NCI/ADR-RES ovarian, with SK-MEL-2 melanoma, in the assay on IGROV1 ovarian, in the assay on SNB-75 CNS and with A549 NSCLC was more than 100 µM each time.

Take `C[C@]12CCC(=O)C=C1CC[C@@H]1[C@@H]2CC[C@]2(C)C(=O)[C@H](n3ccnc3)C[C@@H]12`: the TGI in the assay with U251 CNS, with HS 578T breast, with EKVX NSCLC, with HL-60(TB) leukemia, with NCI-H226 lung and in the assay on ACHN renal was more than 100 µM each time. Besides, the TGI in the assay with MDA-N, in the assay on SN12C renal, in the assay with SR leukemia, with NCI-H23 lung, in the assay with MCF7 breast and in the assay on COLO 205 colon was more than 100 µM throughout. The TGI in the assay on SK-MEL-5 melanoma, with NCI/ADR-RES ovarian, in the assay on SK-MEL-2 melanoma, in the assay with IGROV1 ovarian, with SNB-75 CNS and with A549 NSCLC was more than 100 µM throughout.

As for `OCC1NCC(O)C(O)C1O` (stereo unspecified), the TGI in the assay with HOP-62 NSCLC, with U251 CNS, in the assay with HS 578T breast, with EKVX NSCLC, in the assay with HL-60(TB) leukemia and in the assay on ACHN renal was more than 100 µM throughout. Further, the TGI in the assay on MDA-N, in the assay with SN12C renal, in the assay with SR leukemia, in the assay with NCI-H23 lung, with BT-549 breast and in the assay on MCF7 breast was more than 100 µM throughout. The TGI in the assay on COLO 205 colon, in the assay with SK-MEL-5 melanoma, in the assay with IGROV1 ovarian, in the assay with SNB-75 CNS and in the assay with A549 NSCLC was more than 100 µM each time.
